Reference: paper PMC7159882, “Polyunsaturated fatty acid analogues differentially affect cardiac NaV, CaV, and KV channels through unique mechanisms” (eLife, 2020)

Legend:
Assay type in all cases: cell-based
Cav1.2/β3/α2δ = target: T1, Cav1.2/β3/α2δ (Homo sapiens, UniProt Q13936); experiment: Two-electrode voltage clamp of Cav1.2/β3/α2δ expressed in Xenopus oocytes (Ba2+ as charge carrier); settings: for ICa I/I0: relative current at 0 mV
T1 construct: expressed in transfected cells; host or cells: Xenopus laevis oocytes (cRNA injection, Cav1.2:β3:α2δ 2:1:1 by weight)
Experimental: (§1) Molecular Biology cRNA encoding Kv7.1 (UniProt: P51787), KCNE1 (UniProt: P15382.1), Nav1.5 (UniProt: Q14524.1), Nav β1 (UniProt: […]), Nav β3 (UniProt: […]), Cav1.2 (GenBank: CAA84346), Cav β3 (Uniprot: P54286), Cav β2 (Uniprot: P54288), and Cav α2δ (Uniprot: P13806) were transcribed using the mMessage mMachine T7 kit (Ambion). 50 ng of cRNA was injected into defolliculated Xenopus laevis oocytes (Ecocyte, Austin, TX): For Kv7.1/KCNE1 channel expression, we injected a 3:1, weight:weight (Kv7.1:KCNE1) cRNA ratio. For Nav1.5 channel expression, we injected a 2:1, weight:weight (Nav1.5:β1) cRNA ratio. For Cav1.2 channel expression, we injected a 2:1:1, weight:weight (Cav1.2:β3:α2δ) cRNA ratio. The exact stoichiometry for channel macromolecular complexes, including α -subunits and auxiliary subunits is not clear for many ion channels. For example, there have been multiple reported stoichiometries for Kv7.1:KCNE1 determined in heterologous expression systems with some groups reporting flexible stoichiometry of 4 Kv7.1: 1–4 KCNE1 and others reporting a fixed stoichiometry of 4 Kv7.1: 2 KCNE1 ([Murray et al., 2016]; [Nakajo et al., 2010]). The ratios of cRNA of α- and auxiliary subunits that we injected in Xenopus laevis oocytes are such that all α-subunits are assumed to be in complex with auxiliary subunits. This allows a more homogenous population of ion channels with auxiliary subunits. One caveat to expressing ion channels as macromolecular complexes is that there are many other auxiliary subunits that could associate with the channel α -subunit that are present in cardiomyocytes and have the potential to alter PUFA-induced effects, but that are not being co-expressed in our experiments. In this work, we are co-expressing some of the auxiliary subunits that have been primarily reported to associate with their respective α -subunits in cardiomyocytes. Following cRNA injection, cells were incubated for 72–96 hr in standard ND96 solution (96 mM NaCl, 2 mM KCl, 1 mM MgCl2, 1.8 mM CaCl2, 5 mM HEPES; pH = 7.5) containing 1 mM pyruvate at 16°C prior to electrophysiological recordings.
(§2) Xenopus laevis oocytes were recorded in the two-electrode voltage clamp (TEVC) configuration. Recording pipettes were filled with 3 M KCl. The recording chamber was filled with ND96 (96 mM NaCl, 2 mM KCl, 1 mM MgCl2, 1.8 mM CaCl2, 5 mM HEPES; pH 7.5). For Cav1.2/β3/α2δ channel recordings, Xenopus oocytes were injected with 50 nl of 100 mM EGTA and incubated at 10°C for 30 min prior to electrophysiological recordings in order to sequester cytosolic calcium. In addition, Cav1.2/β3/α2δ channel recordings were done in Ca^2+-free solutions, using Ba^2+ as the charge carrier, to prevent calcium-dependent inactivation of Cav1.2/β3/α2δ channels. Calcium-dependent inactivation was not studied in this work, due to the presence of large calcium-activated chloride currents present in Xenopus laevis oocytes. PUFAs were obtained from Cayman Chemical (Ann Arbor, MI.) or synthesized in house (Linköping, Sweden) through methods previously described ([Bohannon et al., 2020]) and kept at −20 °C as 100 mM stock solutions in ethanol. Serial dilutions of the different PUFAs were prepared from stocks to make 0.2 μM, 0.7 μM, 2 μM, 7 μM, and 20 μM concentrations in ND96 solutions (pH = 7.5). PUFAs were perfused into the recording chamber using the Rainin Dynamax Peristaltic Pump (Model RP-1) (Rainin Instrument Co., Oakland, CA. USA).
(§3) Electrophysiological recordings were obtained using Clampex 10.3 software (Axon, pClamp, Molecular Devices). To measure Kv7.1/KCNE1 currents we apply PUFAs as the membrane potential is stepped every 30 s from −80 mV to 0 mV for 5 s before stepping to −40 mV and back to −80 mV to ensure that the PUFA effects on the current at 0 mV reached steady state. A voltage-step protocol was used to measure the current vs. voltage (I-V) relationship before PUFA application and after the PUFA effects had reached steady state for each concentration of PUFA. […]

Nav1.5/β1 = target: T2, Nav1.5/β1 (Homo sapiens, UniProt Q14524); experiment: Two-electrode voltage clamp of Nav1.5/β1 expressed in Xenopus oocytes; settings: for INa I/I0: relative current at 0 mV
T2 construct: Nav1.5 (UniProt: Q14524.1); expressed in transfected cells; host or cells: Xenopus laevis oocytes (cRNA injection, Nav1.5:β1 2:1 by weight)
T2 sequence (Q14524 whole entry): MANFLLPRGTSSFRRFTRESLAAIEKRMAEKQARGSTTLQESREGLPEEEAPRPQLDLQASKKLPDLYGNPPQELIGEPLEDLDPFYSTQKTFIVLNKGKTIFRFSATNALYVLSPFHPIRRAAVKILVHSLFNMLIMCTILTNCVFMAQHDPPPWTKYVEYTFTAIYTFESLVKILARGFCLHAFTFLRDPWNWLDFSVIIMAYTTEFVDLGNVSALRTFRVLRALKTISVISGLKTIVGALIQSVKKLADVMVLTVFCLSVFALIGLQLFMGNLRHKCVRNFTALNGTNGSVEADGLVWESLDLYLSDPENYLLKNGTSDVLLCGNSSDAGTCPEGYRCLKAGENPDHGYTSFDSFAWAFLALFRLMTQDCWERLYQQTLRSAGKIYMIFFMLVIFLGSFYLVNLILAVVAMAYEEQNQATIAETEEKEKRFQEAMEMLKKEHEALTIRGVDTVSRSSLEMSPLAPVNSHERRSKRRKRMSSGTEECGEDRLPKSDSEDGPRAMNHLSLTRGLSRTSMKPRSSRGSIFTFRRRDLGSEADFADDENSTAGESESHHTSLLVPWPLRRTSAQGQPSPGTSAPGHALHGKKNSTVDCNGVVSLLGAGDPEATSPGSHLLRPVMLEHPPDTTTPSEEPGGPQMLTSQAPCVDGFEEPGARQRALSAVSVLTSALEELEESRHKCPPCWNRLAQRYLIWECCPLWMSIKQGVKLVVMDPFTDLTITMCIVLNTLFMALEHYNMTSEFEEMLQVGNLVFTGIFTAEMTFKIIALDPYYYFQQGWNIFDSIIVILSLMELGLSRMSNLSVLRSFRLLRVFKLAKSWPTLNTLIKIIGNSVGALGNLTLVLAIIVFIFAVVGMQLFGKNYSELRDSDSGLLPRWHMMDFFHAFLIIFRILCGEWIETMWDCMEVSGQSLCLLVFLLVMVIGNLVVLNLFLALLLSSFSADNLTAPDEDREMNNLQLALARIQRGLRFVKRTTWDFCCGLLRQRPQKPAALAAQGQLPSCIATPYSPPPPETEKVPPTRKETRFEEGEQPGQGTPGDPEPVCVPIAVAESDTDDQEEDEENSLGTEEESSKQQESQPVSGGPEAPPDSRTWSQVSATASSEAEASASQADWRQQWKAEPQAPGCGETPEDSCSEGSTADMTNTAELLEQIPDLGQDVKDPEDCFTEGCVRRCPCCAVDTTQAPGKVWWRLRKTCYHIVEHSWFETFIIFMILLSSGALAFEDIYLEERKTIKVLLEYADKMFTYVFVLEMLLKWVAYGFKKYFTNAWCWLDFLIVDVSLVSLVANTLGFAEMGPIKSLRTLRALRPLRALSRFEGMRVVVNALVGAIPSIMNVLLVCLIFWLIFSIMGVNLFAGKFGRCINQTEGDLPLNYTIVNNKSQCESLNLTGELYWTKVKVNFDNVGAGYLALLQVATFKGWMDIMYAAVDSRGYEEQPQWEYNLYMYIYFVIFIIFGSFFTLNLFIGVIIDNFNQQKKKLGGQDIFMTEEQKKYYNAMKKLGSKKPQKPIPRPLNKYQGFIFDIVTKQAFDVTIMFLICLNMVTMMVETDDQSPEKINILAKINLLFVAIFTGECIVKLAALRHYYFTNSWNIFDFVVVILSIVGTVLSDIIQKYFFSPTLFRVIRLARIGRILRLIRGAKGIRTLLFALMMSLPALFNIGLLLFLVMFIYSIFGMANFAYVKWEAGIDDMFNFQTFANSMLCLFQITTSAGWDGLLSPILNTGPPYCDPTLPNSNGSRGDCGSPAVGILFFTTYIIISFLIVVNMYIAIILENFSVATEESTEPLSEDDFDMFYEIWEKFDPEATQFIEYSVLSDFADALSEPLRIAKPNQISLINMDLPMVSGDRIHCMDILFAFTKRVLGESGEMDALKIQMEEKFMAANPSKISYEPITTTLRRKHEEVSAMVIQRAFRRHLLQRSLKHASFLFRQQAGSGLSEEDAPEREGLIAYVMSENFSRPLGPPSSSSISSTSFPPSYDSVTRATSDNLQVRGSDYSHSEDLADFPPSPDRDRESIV
T2 sequence (Q07699 19-218 partner): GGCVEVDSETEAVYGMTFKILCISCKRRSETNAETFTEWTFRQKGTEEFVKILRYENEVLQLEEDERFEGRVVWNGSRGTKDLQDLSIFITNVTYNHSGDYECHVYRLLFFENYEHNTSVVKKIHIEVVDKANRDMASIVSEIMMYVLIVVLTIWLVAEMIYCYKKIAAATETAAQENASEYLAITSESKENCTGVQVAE
Experimental: as §1, §2, §3

Cav1.2/β2/α2δ = target: T3, Cav1.2/β2/α2δ (Homo sapiens, UniProt Q13936); experiment: Two-electrode voltage clamp of Cav1.2/β2/α2δ expressed in Xenopus oocytes; settings: co-expression with β2 subunit instead of β3
T3 construct: expressed in transfected cells; host or cells: Xenopus laevis oocytes (cRNA injection; no ratio printed for the β2 combination)
Experimental: Molecular Biology cRNA encoding Kv7.1 (UniProt: P51787), KCNE1 (UniProt: P15382.1), Nav1.5 (UniProt: Q14524.1), Nav β1 (UniProt: […]), Nav β3 (UniProt: […]), Cav1.2 (GenBank: CAA84346), Cav β3 (Uniprot: P54286), Cav β2 (Uniprot: P54288), and Cav α2δ (Uniprot: P13806) were transcribed using the mMessage mMachine T7 kit (Ambion). 50 ng of cRNA was injected into defolliculated Xenopus laevis oocytes (Ecocyte, Austin, TX): For Kv7.1/KCNE1 channel expression, we injected a 3:1, weight:weight (Kv7.1:KCNE1) cRNA ratio. For Nav1.5 channel expression, we injected a 2:1, weight:weight (Nav1.5:β1) cRNA ratio. For Cav1.2 channel expression, we injected a 2:1:1, weight:weight (Cav1.2:β3:α2δ) cRNA ratio. The exact stoichiometry for channel macromolecular complexes, including α -subunits and auxiliary subunits is not clear for many ion channels. For example, there have been multiple reported stoichiometries for Kv7.1:KCNE1 determined in heterologous expression systems with some groups reporting flexible stoichiometry of 4 Kv7.1: 1–4 KCNE1 and others reporting a fixed stoichiometry of 4 Kv7.1: 2 KCNE1 ([Murray et al., 2016]; [Nakajo et al., 2010]). […]
Xenopus laevis oocytes were recorded in the two-electrode voltage clamp (TEVC) configuration. […]

SMILES	Gmax/Gmax0 (Cav1.2/β3/α2δ; 0.2 μM)	ΔV0.5 (voltage dependence of inactivation) (Cav1.2/β3/α2δ; 0.2 μM)	ICa I/I0 (Cav1.2/β3/α2δ; 0.2 μM)	Gmax/Gmax0 (Cav1.2/β3/α2δ; 0.7 μM)	ΔV0.5 (voltage dependence of inactivation) (Cav1.2/β3/α2δ; 0.7 μM)	ICa I/I0 (Cav1.2/β3/α2δ; 0.7 μM)	Gmax/Gmax0 (Cav1.2/β3/α2δ; 2 μM)	ΔV0.5 (voltage dependence of inactivation) (Cav1.2/β3/α2δ; 2 μM)	ICa I/I0 (Cav1.2/β3/α2δ; 2 μM)	Gmax/Gmax0 (Cav1.2/β3/α2δ; 7 μM)	ΔV0.5 (voltage dependence of inactivation) (Cav1.2/β3/α2δ; 7 μM)	Gmax/Gmax0 (Cav1.2/β3/α2δ; 20 μM)	ΔV0.5 (voltage dependence of inactivation) (Cav1.2/β3/α2δ; 20 μM)	ICa I/I0 (Cav1.2/β3/α2δ; 20 μM)	Gmax/Gmax0 (Nav1.5/β1; 0.2 μM)	ΔV0.5 (voltage dependence of inactivation) (Nav1.5/β1; 0.2 μM)	INa I/I0 (Nav1.5/β1; 0.2 μM)	Gmax/Gmax0 (Nav1.5/β1; 0.7 μM)	ΔV0.5 (voltage dependence of inactivation) (Nav1.5/β1; 0.7 μM)	INa I/I0 (Nav1.5/β1; 0.7 μM)	also measured
CCCCC/C=C\C/C=C\CCCCCCCC(=O)NCC(=O)O [Lin-glycine]	1.1 ± 0.03	0.1 ± 1.7 mV	0.9 ± 0.1	1.1 ± 0.04	-0.7 ± 1.8 mV	0.9 ± 0.1	1.2 ± 0.1	-2.9 ± 1.4 mV	0.9 ± 0.1	1.0 ± 0.1	−3.0 ± 1.6 mV	1.0 ± 0.1	-3.7 ± 1.5 mV	0.7 ± 0.1	1.0 ± 0.03	-0.2 ± 0.06 mV	1.0 ± 0.03	1.0 ± 0.05	-1.2 ± 0.3 mV	1.0 ± 0.04	ΔV0.5 (voltage dependence of inactivation) (Cav1.2/β3/α2δ; 7 μM, listed as lin-glycine): -3.0 ± 1.6 mV; ICa I/I0 (Cav1.2/β3/α2δ; 7 μM, listed as lin-glycine): 0.8 ± 0.1; Gmax/Gmax0 (Nav1.5/β1; 2 μM): 0.9 ± 0.06; ΔV0.5 (voltage dependence of inactivation) (Nav1.5/β1; 2 μM): -4.3 ± 0.8 mV; INa I/I0 (Nav1.5/β1; 2 μM): 0.9 ± 0.1; Gmax/Gmax0 (Nav1.5/β1; 7 μM): 0.5 ± 0.1; ΔV0.5 (voltage dependence of inactivation) (Nav1.5/β1; 7 μM): −15.2 ± 2.8 mV; ΔV0.5 (voltage dependence of inactivation) (Nav1.5/β1; 7 μM, listed as lin-glycine): -15.2 ± 2.8 mV; INa I/I0 (Nav1.5/β1; 7 μM): 0.5 ± 0.1 (p=0.02); INa I/I0 (Nav1.5/β1; 7 μM, listed as lin-glycine): 0.5 ± 0.1; Gmax/Gmax0 (Nav1.5/β1; 20 μM): 0.2 ± 0.02; ΔV0.5 (voltage dependence of inactivation) (Nav1.5/β1; 20 μM): -21.7 ± 1.2 mV; INa I/I0 (Nav1.5/β1; 20 μM): 0.3 ± 0.02; response of Cav1.2/β2/α2δ compared with Cav1.2/β3/α2δ (Cav1.2/β2/α2δ): no differences between Cav1.2/β3/α2δ and Cav1.2/β2/α2δ
CCCCC/C=C\C/C=C\CCCCCCCC(=O)NCCS(=O)(=O)O [Lin-taurine, Linoleoyl taurine]	1.0 ± 0.02	0.6 ± 0.5 mV	1.0 ± 0.02	0.9 ± 0.02	0.9 ± 0.9 mV	0.9 ± 0.1	0.7 ± 0.05	-0.3 ± 1.8 mV	0.7 ± 0.1	0.6 ± 0.05	−1.9 ± 2.5 mV	0.5 ± 0.04	-1.2 ± 4.4 mV	0.5 ± 0.1	1.0 ± 0.01	-0.3 ± 0.1 mV	1.0 ± 0.01	1.0 ± 0.01	-2.2 ± 0.7 mV	1.0 ± 0.05	ΔV0.5 (voltage dependence of inactivation) (Cav1.2/β3/α2δ; 7 μM, listed as lin-taurine): -1.9 ± 2.5 mV; ICa I/I0 (Cav1.2/β3/α2δ; 7 μM): 0.6 ± 0.1 (p=0.01); ICa I/I0 (Cav1.2/β3/α2δ; 7 μM, listed as lin-taurine): 0.6 ± 0.1; shift of the voltage dependence of activation (Cav1.2/β3/α2δ; 0.2-20 μM): without shifting the voltage-dependence of Cav1.2/β3/α2δ activation; Gmax/Gmax0 (Nav1.5/β1; 2 μM): 0.9 ± 0.05; ΔV0.5 (voltage dependence of inactivation) (Nav1.5/β1; 2 μM): -8.8 ± 1.7 mV; INa I/I0 (Nav1.5/β1; 2 μM): 0.6 ± 0.07; Gmax/Gmax0 (Nav1.5/β1; 7 μM): 0.5 ± 0.07; ΔV0.5 (voltage dependence of inactivation) (Nav1.5/β1; 7 μM): −23.5 ± 1.9 mV; ΔV0.5 (voltage dependence of inactivation) (Nav1.5/β1; 7 μM, listed as lin-taurine): -23.5 ± 1.9 mV; INa I/I0 (Nav1.5/β1; 7 μM): 0.1 ± 0.02 (p=0.0001); INa I/I0 (Nav1.5/β1; 7 μM, listed as lin-taurine): 0.1 ± 0.02; Gmax/Gmax0 (Nav1.5/β1; 20 μM): 0.3 ± 0.04; ΔV0.5 (voltage dependence of inactivation) (Nav1.5/β1; 20 μM): -34.9 ± 1.5 mV; INa I/I0 (Nav1.5/β1; 20 μM): 0.1 ± 0.01; shift of the voltage dependence of activation (Nav1.5/β1; 0.2-20 μM): no shift in the voltage dependence of activation; response of Cav1.2/β2/α2δ compared with Cav1.2/β3/α2δ (Cav1.2/β2/α2δ): no differences between Cav1.2/β3/α2δ and Cav1.2/β2/α2δ
